pIC50: −log10 of the molar value. Values joined by “and” are separate entries in the source; they are usually repeats but may differ in a detail not shown here. Identical values can stand only once. “Also recorded” adds a separate entry of the source.

As a reminder, the IC50 is the concentration needed to halve the response being measured. A higher IC50 goes with weaker potency. As a reminder, the pIC50 is the IC50 on a negative log10 scale, so that one unit is a factor of ten.

Assay [1] concerns Human influenza A virus subtype /PR/8/34 H1N1. The assay can be described thus: microbe, parasite or virus in culture. The format is cell-based, Influenza A/PR/8/34 (H1N1). The following applies: MDCK.
In another assay the test system is H1N1 virions. The format is binding, Influenza A virus (H1N1).
The subject of assay [2] is Escherichea coli (ATCC# 53499). Briefly: microbe, parasite or virus in culture. The following applies: Escherichia coli, ATCC53499, read-out: IC50 value, adhesion inhibition.
The subject of assay [3] is Candida albicans (ATCC# 96133). Briefly: microbe, parasite or virus in culture. Conditions: ATCC96133, read-out: IC50 value, adhesion inhibition.

As for `NC12CC3CC(CC(C3)C1)C2` [Amantadine], the concentration for half-maximal inhibition (IC50) in assay [1] is 4.7 µg/mL and 27 µM.

On to `O=C1c2c(O)cc(O)cc2OC(c2cc(O)c(O)c(O)c2)C1O` (stereo not drawn) [Tristenonol aglycone, 3,5,7-Trihydroxy-2-(3,4,5-trihydroxyphenyl)-chroman-4-one], for which, in the assay with H1N1 virions, the “direct binding to H1N1 virus surface” value is “does bind directly to the virus surface; also recorded: bound to the H1N1 virus surface”. Besides, the negative logarithm of the IC50 (pIC50) is 4.22 in assay [2] and 4.05 in assay [3]. Besides, the IC50 in assay [1] was 2.8 µg/mL and 5.4 µM.

For `CCOC(=O)C1=C[C@@H](OC(CC)CC)[C@H](NC(C)=O)[C@@H](N)C1` [Oseltamivir], in assay [1], the IC50 is 0.1 µg/mL and 320 nM.

For the origin of these results see patent US20090092624A1, “Antiinfective Flavononol Compounds and Methods of Use Thereof” (priority 2007, published 2009).
